Assays:
Format in all cases: functional
Escherichia coli [1] = assay: Antibacterial activity against Escherichia coli ATCC 25922
Escherichia coli [2] = assay: Antibacterial activity against Escherichia coli DC2, hyperpermeable strain
Pseudomonas aeruginosa [3] = assay: Antibacterial activity against Pseudomonas aeruginosa ATCC 27853
Pseudomonas aeruginosa [4] = assay: Antibacterial activity against Pseudomonas aeruginosa VR5
Staphylococcus aureus [5] = assay: Antibacterial activity against Staphylococcus aureus ATCC 25923
Staphylococcus aureus [6] = assay: Antibacterial activity against Staphylococcus aureus MR 0.13

Row | SMILES | MIC (Escherichia coli [1]) [µg/mL] | MIC (Escherichia coli [2]) [µg/mL] | MIC (Pseudomonas aeruginosa [3]) [µg/mL] | MIC (Pseudomonas aeruginosa [4]) [µg/mL] | MIC (Staphylococcus aureus [5]) [µg/mL] | MIC (Staphylococcus aureus [6]) [µg/mL]
1 | C[C@@H](O)[C@H]1C(=O)N2C(C(=O)[O-])=C(CSC(=S)N(C)c3ccccn3)S[C@H]12.[Na+] | > 32 | 1 | > 32 | > 32 | 0.06 | 0.5
2 | C[C@@H](O)[C@H]1C(=O)N2C(C(=O)[O-])=C(CSC(=S)N(C)CCc3ccccn3)S[C@H]12.[Na+] | > 32 | 2 | > 32 | > 32 | 0.06 | 0.12
3 | C[C@@H](O)[C@H]1C(=O)N2C(C(=O)[O-])=C(CSC(=S)N(C)c3ccccc3)S[C@H]12.[Na+] | > 32 | 1 | > 32 | > 32 | 0.03 | 0.25
4 | C[C@@H](O)[C@H]1C(=O)N2C(C(=O)[O-])=C(CSC(=S)N(C)OCc3ccccc3)S[C@H]12.[Na+] | > 32 | 2 | > 32 | 32 | 0.03 | 0.12
5 | C[C@@H](O)[C@H]1C(=O)N2C(C(=O)[O-])=C(CSC(=S)N(C)CC(N)=O)S[C@H]12.[Na+] | 8 | 0.5 | > 32 | 4 | 0.12 | 0.03
6 | C[C@@H](O)[C@H]1C(=O)N2C(C(=O)[O-])=C(CSC(=S)N(C)Cc3ccccc3)S[C@H]12.[Na+] | > 32 | 1 | > 32 | 32 | 0.06 | 0.5
7 | C[C@@H](O)[C@H]1C(=O)N2C(C(=O)[O-])=C(CSC(=S)N3CCCC3)S[C@H]12.[Na+] | > 32 | 0.5 | > 32 | > 32 | 0.03 | 0.12

Results, then the compound that gave them:

Row | MIC (Escherichia coli [1]) [µg/mL] | MIC (Escherichia coli [2]) [µg/mL] | MIC (Pseudomonas aeruginosa [3]) [µg/mL] | MIC (Pseudomonas aeruginosa [4]) [µg/mL] | MIC (Staphylococcus aureus [5]) [µg/mL] | MIC (Staphylococcus aureus [6]) [µg/mL] | SMILES
8 | > 32 | 2 | > 32 | > 32 | 0.12 | 0.5 | CC(=O)OCCN(CCOC(C)=O)C(=S)SCC1=C(C(=O)[O-])N2C(=O)[C@H]([C@@H](C)O)[C@H]2S1.[Na+]
9 | 4 | 2 | > 32 | 4 | 0.03 | 0.03 | C[C@@H]([O-])[C@H]1C(=O)N2C(C(=O)[O-])=C(CSC(=S)N3CC[N+](C)(C)CC3)S[C@H]12.[Na+]
10 | 4 | 0.5 | > 32 | 4 | 0.03 | 0.06 | C[C@@H](O)[C@H]1C(=O)N2C(C(=O)[O-])=C(CSC(=S)N3CCN(C)CC3)S[C@H]12.[Na+]
11 | > 32 | 0.5 | > 32 |  | 0.25 | 1 | C[C@@H](O)[C@H]1C(=O)N2C(C(=O)[O-])=C(CSC(=S)N3CCN(C(=O)c4ccc(O)c(O)c4)CC3)S[C@H]12.[Na+]
12 | 32 | 0.5 | > 32 | 0.5 | 0.03 | 0.06 | C[C@@H](O)[C@H]1C(=O)N2C(C(=O)[O-])=C(CSC(=S)N3CCOCC3)S[C@H]12.[Na+]
13 | 8 | 4 | > 32 | 4 | 0.12 | 0.25 | C[C@@H](O)[C@H]1C(=O)N2C(C(=O)[O-])=C(CSC(=S)N3CCNCC3)S[C@H]12.[Na+]
14 | 8 |  | 32 | 0.25 | 0.25 | 0.12 | CC1(C)S[C@@H]2[C@H](NC(=O)[C@H](N)c3ccccc3)C(=O)N2[C@H]1C(=O)O.CC1(C)[C@H](C(=O)O)N2C(=O)C[C@H]2S1(=O)=O
15 | 32 | 0.12 | > 32 | 1 | 0.03 | 0.06 | C[C@@H](O)[C@H]1C(=O)N2C(C(=O)[O-])=C(CSC(=S)N(C)C)S[C@H]12.[Na+]
16 | 16 | 4 | > 32 | 16 | 0.12 | 0.12 | CC(=O)N1CCN(C(=S)SCC2=C(C(=O)[O-])N3C(=O)[C@H]([C@@H](C)O)[C@H]3S2)CC1.[Na+]
17 | 32 | 4 | > 32 | 2 | 0.25 | 0.5 | C[C@@H](O)[C@H]1C(=O)N2C(C(=O)[O-])=C(CSC(=S)N(CCO)CCO)S[C@H]12.[Na+]

Source: ChEMBL document CHEMBL1150474, “Synthesis of new penem dithiocarbamates” (1993)
